Assay results from ChEMBL document CHEMBL1201862, “PubChem BioAssay data set” (2004).
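Briefly, cells in 96-well plates were exposed to five compound concentrations for 48 h, and endpoints were estimated by linear interpolation. Abbreviation: GI50, concentration required for 50% inhibition of growth.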 Active and inactive are the calls of the source. Rule as the data show it: active = GI50 up to about 1.1 µM and inactive = higher.

How the values were obtained:
Test in all cases: inhibition of tumour cell growth, NCI panel, 48 h
OVCAR-8 = system: OVCAR-8
BT-549 = system: BT-549
T47D = system: T47D
HCT-15 = system: HCT-15
LOX IMVI = system: LOX IMVI
TK-10 = system: TK-10
CAKI-1 = system: CAKI-1
HT-29 = system: HT-29
OVCAR-5 = system: OVCAR-5
SNB-75 = system: SNB-75
EKVX = system: EKVX
MDA-MB-231 = system: MDA-MB-231
NCI/ADR-RES = system: NCI/ADR-RES
DU-145 = system: DU-145
MDA-MB-435 = system: MDA-MB-435
HOP-92 = system: HOP-92
NCI-H23 = system: NCI-H23
HCT-116 = system: HCT-116
OVCAR-3 = system: OVCAR-3
SK-OV-3 = system: SK-OV-3

| Structure (SMILES) | GI50 (OVCAR-8) | GI50 (BT-549) | GI50 (T47D) | GI50 (HCT-15) [µM] | GI50 (LOX IMVI) | GI50 (TK-10) | GI50 (CAKI-1) | GI50 (HT-29) | GI50 (OVCAR-5) | GI50 (SNB-75) | GI50 (EKVX) | GI50 (MDA-MB-231) | GI50 (NCI/ADR-RES) | GI50 (DU-145) | GI50 (MDA-MB-435) | GI50 (HOP-92) | GI50 (NCI-H23) | GI50 (HCT-116) | GI50 (OVCAR-3) | GI50 (SK-OV-3) |
| --- | --- | --- | --- | --- | --- | --- | --- | --- | --- | --- | --- | --- | --- | --- | --- | --- | --- | --- | --- | --- |
| N=C(N)N/N=C/c1c(-c2cccc([N+](=O)[O-])c2)nc2n1CCS2 | 16.7 µM (inactive) | 15.9 µM (inactive) | 8.02 µM (inactive) | 33.1 | 16.6 µM (inactive) | 23.4 µM (inactive) | 31.7 µM (inactive) | 15.7 µM (inactive) | 35 µM (inactive) | 9.68 µM (inactive) | 25.4 µM (inactive) | 16.7 µM (inactive) | 77.6 µM (inactive) | 19 µM (inactive) | 28.2 µM (inactive) | 14.9 µM (inactive) | 25.5 µM (inactive) | 20.5 µM (inactive) | 30.3 µM (inactive) |  |
| CCOC(=O)CC1(N)CC2c3ccccc3OC(=O)C2C(=O)N1 (stereo unspecified) | > 100 µM (inactive) | > 100 µM (inactive) | > 100 µM (inactive) | > 100 | > 100 µM (inactive) | > 100 µM (inactive) | > 100 µM (inactive) | > 100 µM (inactive) | > 100 µM (inactive) | > 100 µM (inactive) | > 100 µM (inactive) | > 100 µM (inactive) | > 100 µM (inactive) | > 100 µM (inactive) | > 100 µM (inactive) | > 100 µM (inactive) | > 100 µM (inactive) | > 100 µM (inactive) | > 100 µM (inactive) |  |
| COc1cc2c(cc1OC)C(=O)N(c1ccc(O)cc1)C2 | > 100 µM (inactive) | > 100 µM (inactive) | > 100 µM (inactive) | > 100 | > 100 µM (inactive) | > 100 µM (inactive) | > 100 µM (inactive) | > 100 µM (inactive) | > 100 µM (inactive) |  | > 100 µM (inactive) | > 100 µM (inactive) | > 100 µM (inactive) | > 100 µM (inactive) | > 100 µM (inactive) | > 100 µM (inactive) | > 100 µM (inactive) | > 100 µM (inactive) | > 100 µM (inactive) | > 100 µM (inactive) |
| CC[C@H](C)[C@H](NC(=O)N(CCC#N)CCN(CCN(C(=O)N[C@@H](Cc1ccccc1)C(=O)OC)c1ccccc1)C(=O)N[C@H](C(=O)OC)C(C)C)C(=O)OC | 22.6 µM (inactive) | 22.9 µM (inactive) | 14.3 µM (inactive) | 21.8 | 20.7 µM (inactive) | 18.3 µM (inactive) | 19.8 µM (inactive) |  | 25 µM (inactive) | 19.9 µM (inactive) | 29.7 µM (inactive) | 18 µM (inactive) | 23.6 µM (inactive) | 20 µM (inactive) | 16.6 µM (inactive) | 6.24 µM (inactive) | 19.9 µM (inactive) | 19.2 µM (inactive) | 17.4 µM (inactive) | 20.9 µM (inactive) |
| c1cncc(CC2(c3cc4ccccc4[nH]3)OCCO2)c1 | > 100 µM (inactive) | 66.1 µM (inactive) | > 100 µM (inactive) | > 100 | > 100 µM (inactive) | > 100 µM (inactive) | > 100 µM (inactive) | > 100 µM (inactive) |  | > 100 µM (inactive) |  | > 100 µM (inactive) | > 100 µM (inactive) | > 100 µM (inactive) | > 100 µM (inactive) | > 100 µM (inactive) | > 100 µM (inactive) | > 100 µM (inactive) |  | > 100 µM (inactive) |
| Cc1cc(S(=O)(=O)Nc2nnc3c(C(F)(F)F)cc(Cl)cn23)c(S)cc1Cl | > 100 µM (inactive) | > 100 µM (inactive) | 70.5 µM (inactive) | > 100 | > 100 µM (inactive) | > 100 µM (inactive) | 56.6 µM (inactive) | > 100 µM (inactive) | > 100 µM (inactive) | 90.8 µM (inactive) | > 100 µM (inactive) | > 100 µM (inactive) | > 100 µM (inactive) | > 100 µM (inactive) | 76 µM (inactive) | > 100 µM (inactive) |  | 57.9 µM (inactive) | 89.5 µM (inactive) | > 100 µM (inactive) |
| Cc1cc(-c2ccccc2)nc2oc(=O)n(C)c12 | 90.4 µM (inactive) | > 100 µM (inactive) | 94.6 µM (inactive) | > 100 | > 100 µM (inactive) | 34.4 µM (inactive) | 49.1 µM (inactive) | > 100 µM (inactive) | > 100 µM (inactive) |  | 42.8 µM (inactive) | 64.9 µM (inactive) | > 100 µM (inactive) | > 100 µM (inactive) | > 100 µM (inactive) | 86.5 µM (inactive) | 83.9 µM (inactive) | 75 µM (inactive) | > 100 µM (inactive) | > 100 µM (inactive) |
